Data as given in publication PMC5505701, “Somatostatin binds to the human amyloid β peptide and favors the formation of distinct oligomers” (eLife, 2017).
“Also recorded” adds a separate entry of the source.

Key:
SST14 = test: SST14-dependent ThT incorporation in presence of Aβ1-42; format: biochemical, human
Source text: Figure 4. […] (A) Workflow of ThT-based aggregation assay. (B) Representative ThT fluorescence charts using synthetic Aβ1-42 alone or in combination with SST14 or negative control AVP peptides. […] Please see legend for experimental conditions. DOI: http://dx.doi.org/10.7554/eLife.28401.008 Figure 4—figure supplement 1. […] (A) Workflow of ThT-based aggregation assay. […] (B) Representative ThT fluorescence charts monitoring SST14-dependent ThT incorporation. […] DOI: http://dx.doi.org/10.7554/eLife.28401.009 [drawing 1] Figure 4—figure supplement 2. […] (A) Workflow of amylin-dependent ThT fluorecence assay in the presence or absence of SST14. (B) Representative ThT fluorescence charts monitoring amylin-dependent ThT incorporation. […] DOI: http://dx.doi.org/10.7554/eLife.28401.010 [drawing 2]
Assay procedures were largely based on a protocol described by Sarah Linse’s group ([Hellstrand et al., 2010]). […] The subsequent plate incubation proceeded at 37°C with shaking at 700 rpm for 4 of every 5 min in a microplate reader (CLARIOstar, BMG Labtech, Guelph, ON, Canada) for overall durations specified in individual figures. ThT fluorescence was measured every 5 min at excitation and emission wavelengths of 444 nm and 485 nm, respectively.

Aβ1-42 [1] = biological target: T1, Aβ1-42 (Homo sapiens, UniProt P05067); test: Negative stain electron microscopy of Aβ1-42 assemblies; format: biochemical; conditions: 50 μM Aβ1-42 in PBS, with or without equimolar SST
T1 construct: purchased Anaspec, Inc. (Fremont, CA, USA) AS-24224; host or cells: synthetic peptide
T1 sequence (P05067 672-713 limits assumed): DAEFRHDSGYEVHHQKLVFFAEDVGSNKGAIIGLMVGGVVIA

Aβ1-42 [2] = biological target: T1, Aβ1-42; test: Western blot / silver stain detection of Aβ1-42 after incubation with SST14 or CST17; format: biochemical; conditions: 18 hr incubation, 6E10 Western blot, Aβ1-42 alone or with SST14 or CST17
Experimental: Initially, we were interested in observing the influence of incubation time on sample composition (Figure 5B).

[3] = tested on: tau phosphorylated at pSer202/pThr205 (AT8) and pThr231 (AT180) in primary hippocampal neurons; test: Primary hippocampal neuron tau phosphorylation assay (Western blot)
Aβ = conditions: ref Maftei et al., 2012; cited from earlier work
Source text: Although initially captured at pH 8.0, a widely-used pH for interactome analyses, owed to its wide-spread use in radioimmunoprecipitation assay (RIPA) buffer formulations, the oAβ-SST14 interaction was in subsequent validation ...

Row | Substance | delay of SST14-dependent ThT incorporation by monomeric Aβ1-42 (SST14; 1 μM monomeric Aβ1-42, 250 μM SST14) | delay of SST14-dependent ThT incorporation by oligomeric Aβ1-42 (SST14; 1 μM pre-aggregated Aβ1-42, 250 μM SST14) | assemblies observed by negative stain electron microscopy (Aβ1-42 [1]) | apparent molecular weight of HMM 6E10 signals (Aβ1-42 [2]) | tau hyperphosphorylation by monomeric Aβ1-42 ([3]; monomeric Aβ1-42 (0 hr) alone, 24 hr exposure) | tau hyperphosphorylation by oligomeric Aβ1-42 ([3]; pre-aggregated (24 hr) Aβ1-42, 24 hr exposure, day 18 cultures, AT8 and AT180, listed as oAβ1-42) | Aβ binding epitope (Aβ)
1 | amyloid β peptide 1-42 [Aβ1-42] | Oligomeric, but not monomeric, Aβ1-42 interferes with SST14-dependent ThT incorporation | reliably delayed SST14-dependent ThT incorporation by several hours; also recorded: profound delay in SST14 aggregation-dependent ThT incorporation | characteristic amyloid fibrils | 55-200 kDa | not observed when monomeric Aβ1-42 was added to the cell culture medium alone | robust tau hyperphosphorylation was observed | 
2 | humanin: 21-24 amino acid peptide coded within the mitochondrial 16S ribosomal RNA gene |  |  |  |  |  |  | interacts with an Aβ binding epitope encompassing residues 17-28
